Data published in the OPERA property sets (Mansouri et al. 2018).
Where a SMILES comes first, the peptide text is derived from it. [ ]: non-standard residue; d: D form. The star is where a group is joined. X1 = O=C(CCCCSc1[nH]cnc2ncnc1-2)*; Orn = NCCC[CH](N)C(=O)O; NHtBu = CC(C)(C)N*

Row | SMILES | logP
1 | CC(C)(C)C(=O)C(C#N)=NNc1ccc(Cl)cc1C(F)(F)F | 5.67
2 | CC(=O)NC(CC(C)C)C(=O)NC(Cc1ccccc1)C(=O)NC(CCCNC(=N)N)C(N)=O (stereo not drawn) (Ac-Leu-Phe-Arg-NH2; configuration not given here) | -0.12
3 | C#CCOc1c(Cl)cc(NC=NOC)cc1Cl | 3.3
4 | CC(NC(=O)N(CCCl)N=O)C(=O)O (configuration not stated) | 0.78
5 | CCC1(CC)OCC(c2ccc(NC(=O)N(C)C)cc2C)CO1 | 2.76
6 | CC1=NCCC1 | 1.87
7 | CC(=O)Nc1c(I)c(C(=O)NC(CO)CO)c(I)c(C(=O)NC(CO)CO)c1I | -2.27
8 | CC(=NOCC(=O)O)c1cc(Oc2ccc(C(F)(F)F)cc2Cl)ccc1[N+](=O)[O-] | 4.3
9 | O=C(O)c1c(Br)cccc1Br | 3.58
10 | N#CC(C#N)=NNc1ccccc1Br | 3.11
11 | CSc1nc(Nc2ccc(Cl)cc2)nc(C(Cl)(Cl)Cl)n1 | 5.71
12 | ClC1CC(Cl)C(Cl)CC1Cl (configuration not stated) | 2.82
13 | CC(C)(C)NC(=O)C1CN(S(=O)(=O)c2cccc3cccnc23)CCN1CC(O)CC(Cc1ccccc1)C(=O)NC1c2ccccc2CC1O (configuration not stated) | 3.7
14 | COC(=O)CCCCC(S)CCS (configuration not stated) | 2.27
15 | COc1cc(O)cc(OC)c1O | 0.17
16 | CC(=O)NC(CCC(=O)O)C(N)=O (configuration not stated) | -2.47
17 | Cc1cc([N+](=O)[O-])ccc1NN=C(C#N)C#N | 3.55
18 | O=C(O)c1ccc(CCl)cc1 | 2.12
19 | CCC1CC(C(=O)NC(C(C)O)C2OC(SC)C(O)C(O)C2O)N(C)C1 (configuration not stated) | -0.4
20 | CCC(C)NC(=O)C(=Cc1ccccc1)Cc1ccccc1 (configuration not stated) | 3.99
21 | CCCCCCOc1cccc(NC(=O)OCCN2CCOCC2)c1 | 4.73
22 | COCCCNC(=O)C(F)(F)Cn1cnc([N+](=O)[O-])n1 | 0.01

Row | SMILES | logP
23 | Clc1cc(Cl)cc(-c2c(Cl)cc(Cl)c(Cl)c2Cl)c1 | 7.1
24 | Clc1cc2c(c(Cl)c1Cl)Oc1c(Cl)cccc1O2 | 6.39
25 | CCC1COC(Cn2cncn2)(c2ccc([N+](=O)[O-])cc2)O1 (configuration not stated) | 1.52
26 | O=c1ccn(C2C=C(CO)C(O)C2O)c(=O)[nH]1 (configuration not stated) | -2.19
27 | COc1ccccc1OCc1ccccc1CCCN1CCC(O)CC1 | 2.82
28 | Fc1ccc(SCc2ccccc2CCCN2CCOCC2)cc1 | 3.69
29 | c1ccc(Cn2cnnn2)cc1 | 1.36
30 | COc1cccc2c1C(=O)c1c(O)c3c(c(O)c1C2=O)CC(O)(C(O)CO)CC3OC1CC(N2CCOCC2C#N)C(O)C(C)O1 (configuration not stated) | 1.56
31 | CCCC(=O)OCn1ncc2c(=O)[nH]cnc21 | 0.6
32 | CC12C=CC(=O)C=C1CCC1C2C(O)CC2(C)C1CCC2(O)C(=O)COC1OC(CO)C(OC2OC(CO)C(O)C(O)C2O)C(O)C1O (configuration not stated) | -0.56
33 | COCCn1cnc2c(=O)[nH]c(Nc3ccccc3)nc21 | 1.2
34 | O=[N+]([O-])C=C1NCCCN1Cc1ccc(Cl)nc1 | -0.62
35 | CC(=O)OC1C(=O)C2(C)C(O)CC3OCC3(OC(C)=O)C2C(OC(=O)c2ccccc2)C2(O)CC(OC(=O)C(C)O)C(C)=C1C2(C)C (configuration not stated) | 1.52
36 | Cc1ccc(NC(=O)c2[nH]nc(C)c2[N+](=O)[O-])cc1 | 2.34
37 | CCCN1C(=O)C(=O)c2ccccc2C1=O | 1.6
38 | O=[N+]([O-])C=C1NCCN1Cc1ccc(Cl)nc1 | -0.19
39 | CCC(=O)C(CS(=O)(=O)c1ccc(C)cc1)c1ccc(OC)cc1 (configuration not stated) | 2.47
40 | O=C(NN1CCCCC1)NS(=O)(=O)c1ccc(Cl)cc1 | 0.84
41 | CCCCCCNC(=O)C1(O)C(C)CC2C3CCC4=CC(=O)C=CC4(C)C3(F)C(O)CC21C (configuration not stated) | 4.54
42 | CC(O)CNC(=O)C(F)(F)Cn1cnc([N+](=O)[O-])n1 (configuration not stated) | -0.47
43 | O=C(CCCN1CCC(C(O)(c2ccccc2)c2ccccc2)CC1)c1ccccc1 | 4.42
44 | CC1CSC2C(NC(=O)C(O)c3ccccc3)C(=O)N2C1C(=O)O (configuration not stated) | 0.47

Row | SMILES | logP
45 | O=C(N/N=C/c1ccc[nH]1)Nc1ccccc1 | 2.96
46 | CCC(=O)C1(c2cccc(OC(C)=O)c2)CCN(C)CC1 | 1.05
47 | CCC1COC(Cn2cncn2)(c2ccc(NC(=O)NC)cc2)O1 (configuration not stated) | 0.62
48 | CC(=O)N(CC(O)CO)c1c(I)c(C(=O)NCCO)c(I)c(C(=O)NCCO)c1I (configuration not stated) | -1.86
49 | O=[N+]([O-])c1nccn1CCN1CCCCC1 | 0.36
50 | CC1=CCC2C(C1)c1c(O)cc(NS(C)(=O)=O)cc1OC2(C)C (configuration not stated) | 3.12
51 | CC(=O)NC(CCCN)C(=O)NC(Cc1ccccc1)C(=O)NC(CC(C)C)C(N)=O (stereo not drawn) (Ac-[Orn]-Phe-Leu-NH2; configuration not given here) | 0.54
52 | CCNc1nc(NC)nc(SC(F)F)n1 | 2.68
53 | CS(=O)(=O)CCOCn1ccnc1C=NO | -0.84
54 | CC1CCCC(C)C1NC(=O)N(CCCl)N=O (configuration not stated) | 2.57
55 | CCN(CC)C(=O)COC(=O)C(C)c1ccc2cc(OC)ccc2c1 (configuration not stated) | 3.32
56 | CC(C)(C)N(NC(=O)c1ccccc1F)C(=O)c1ccccc1Cl | 2.63
57 | CN(C)N=Nc1ccc(CC(=O)O)cc1 | 1.38
58 | CCC(C)C(NC(C)=O)C(=O)NC(CC(C)C)C(=O)NC(CC(=O)O)C(N)=O (stereo not drawn) (Ac-Ile-Leu-Asp-NH2; configuration not given here) | -0.04
59 | CC(C)(C)c1ccc2c(c1)OCCOCCOCCOCCOCCO2 | 1.71
60 | O=C1NC(=O)C(=O)C(=O)N1 | -1.84
61 | Clc1cc(Cl)c2c(c1)Oc1c(cc(Cl)c(Cl)c1Cl)O2 | 6.53
62 | Cc1n[nH]c(C(=O)N2CCCC2)c1[N+](=O)[O-] | 0.25
63 | Clc1ccc(-c2cc(Cl)c(Cl)c(Cl)c2Cl)cc1Cl | 7.6
64 | CCCNc1nc(C(Cl)(Cl)Cl)nc(C(Cl)(Cl)Cl)n1 | 4.09
65 | OCC1CCC(n2cnc3cncnc32)O1 (configuration not stated) | -0.47
66 | Cc1ncc([N+](=O)[O-])n1CCNC(=O)OC1CCCCC1 | 2.01

Row | SMILES | logP
67 | Cc1ccc(Cl)c(Cl)c1Cl | 4.56
68 | COCC(O)Cn1cc([N+](=O)[O-])nn1 (configuration not stated) | -0.36
69 | Cc1cc(C)cc(Cl)c1 | 3.88
70 | CCCN(C=Nc1ccn(C2CC(O)C(CO)O2)c(=O)n1)CCC (configuration not stated) | 0.4
71 | CCOC(=O)CNC(=O)CNC(=O)CNC(=O)CNC(=O)CCCCSc1[nH]cnc2ncnc1-2 (X1-GGGG-OEt) | -0.23
72 | CCN1CC(C(O)C(CC2CCCCC2)NC(=O)C(Cc2c[nH]cn2)NC(=O)C(Cc2ccc(OC)cc2)NC(=O)N(C)CCOCOC)OC1=O (configuration not stated) | 2.3
73 | Cc1ccccc1C(=O)NN(C(=O)c1ccccc1Cl)C(C)(C)C | 2.91
74 | CC(=O)NC(C)C(=O)N1CCCC1C(=O)NC(C)C(=O)NC(C)(C)C (stereo not drawn) (Ac-Ala-Pro-Ala-NHtBu; configuration not given here) | -0.39
75 | CCC1COC(Cn2cncn2)(c2ccc(C(=N)N)cc2)O1 (configuration not stated) | 0.85
76 | COc1cc2c(c(OC)c1OC)-c1ccc(OC)c(=O)cc1C(NC(=O)C(F)(F)F)CC2 (configuration not stated) | 1.72
77 | O=[N+]([O-])c1cnc(-c2ccc(F)cc2)[nH]1 | 1.52
78 | CCN1C(=O)C(=O)c2c(OC)cccc2C1=O | 0.9
79 | Cc1ccc(Cl)c(Cl)c1 | 3.95
80 | CCCCOc1ccc(NC(=O)OCCN2CCOCC2)cc1 | 3.35
81 | [N-]=[N+]=CC(=O)NCC(=O)N1CCOCC1 | -0.47
82 | O=C(O)C(Cc1ccc(F)cc1)n1cccc1 (configuration not stated) | 2.04
83 | O=c1[nH]c(Nc2ccccc2)nc2c1ncn2CC(O)CO (configuration not stated) | 0.4
84 | O=[N+]([O-])c1nccn1CCC(O)CO (configuration not stated) | -0.9
85 | CCCOc1cccc(NC(=O)OCCN2CCOCC2)c1 | 3.04
86 | Clc1ccc(-c2ccc(Cl)c(Cl)c2)c(Cl)c1 | 6.31
87 | Cc1nc(Br)c([N+](=O)[O-])n1C | 0.87
